Laboratory results taken from patent US20100298314A1, “NOVEL JNK INHIBITORS” (Schering Corporation, priority 2006, published 2010).
“And” between values parts separate entries of the source, which are not always exact repeats. Equal entries are not always repeated. Where two headings read alike, the source gives them in different places.

Experiments:
Format in all cases: biochemical
JNK1 = JNK1 (Homo sapiens, UniProt P45983); assay: JNK1 kinase DELFIA (phosphorylation of biotinylated GST-ATF2)
Procedure: (§1) Before initiation of kinase reactions, compounds were pre-incubated with the enzyme for 10 minutes. Pre-incubation reactions contained 50 mM HEPES pH 7.3, 10 mM MgCl2, 1 mM DTT, 75 mM NaCl, 1 mM EDTA, 1 mM EGTA, 0.01% CHAPS, 2 nM JNK1, 6 ug/mL biotinylated GST-ATF2, 0.1 mg/ml BSA, 5% DMSO and 0-100 μM compound in a total volume of 40 μL. After a 10 minute room temperature pre-incubation, 10 μL of 35 μM ATP was added to start the reaction (final concentration of ATP=7 uM). Reactions were incubated at room temperature for 30 minutes. A small aliquot (10 uL) was taken and quenched by adding into 190 uL of DELFIA Assay buffer containing 100 mM EDTA. The amount of phosphate transferred to biotinylated GST-ATF2 was measured using the Dissociation Enhanced Lanthanide Fluorescence Immuno-assay (DELFIA) from Perkin Elmer according to manufacturers protocol. Briefly, biotinylated GST-ATF2 was captured on streptavidin coated plates for 1 hour, washed twice, then incubated for 1 hour with a 1:1000 dilution of rabbit-anti-phospho-ATF2 antibody and a 1:3500 dilution of Europium-labeled anti-rabbit secondary antibody. Free antibody was removed with six washes, Europium was dissociated from the antibody, and Europium fluorescence was measured using an excitation wavelength of 340 nm and an emission wavelength of 615 nm. JNK2 and JNK3 kinase reactions were carried out similarly, with the exception that the final concentration of ATP was 4 uM and 2 uM, respectively.

JNK3 = JNK3 (Homo sapiens, UniProt P53779); assay: JNK3 kinase DELFIA (phosphorylation of biotinylated GST-ATF2); settings: final ATP 2 uM
Procedure: as §1

JNK2 = JNK2 (Homo sapiens, UniProt P45984); assay: JNK2 kinase DELFIA (phosphorylation of biotinylated GST-ATF2); settings: final ATP 4 uM, reported as range for a group
Procedure: as §1

[1] = DELFIA, 2 nM JNK1, final ATP 7 uM, 10 min pre-incubation, reported as range for a group

JNK1, sequence (P45983 whole entry, species assumed): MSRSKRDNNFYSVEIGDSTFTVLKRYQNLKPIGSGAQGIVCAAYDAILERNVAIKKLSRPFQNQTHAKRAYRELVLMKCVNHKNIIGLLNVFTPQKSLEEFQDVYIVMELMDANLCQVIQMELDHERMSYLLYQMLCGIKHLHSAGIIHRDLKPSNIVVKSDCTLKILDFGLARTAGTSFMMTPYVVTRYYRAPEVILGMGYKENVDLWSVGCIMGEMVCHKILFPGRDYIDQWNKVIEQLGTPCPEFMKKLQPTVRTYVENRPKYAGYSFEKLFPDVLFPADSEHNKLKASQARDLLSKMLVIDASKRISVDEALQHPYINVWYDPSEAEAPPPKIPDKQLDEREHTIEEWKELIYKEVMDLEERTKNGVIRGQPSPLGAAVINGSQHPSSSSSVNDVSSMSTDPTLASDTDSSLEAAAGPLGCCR
JNK2, sequence (P45984 whole entry, species assumed): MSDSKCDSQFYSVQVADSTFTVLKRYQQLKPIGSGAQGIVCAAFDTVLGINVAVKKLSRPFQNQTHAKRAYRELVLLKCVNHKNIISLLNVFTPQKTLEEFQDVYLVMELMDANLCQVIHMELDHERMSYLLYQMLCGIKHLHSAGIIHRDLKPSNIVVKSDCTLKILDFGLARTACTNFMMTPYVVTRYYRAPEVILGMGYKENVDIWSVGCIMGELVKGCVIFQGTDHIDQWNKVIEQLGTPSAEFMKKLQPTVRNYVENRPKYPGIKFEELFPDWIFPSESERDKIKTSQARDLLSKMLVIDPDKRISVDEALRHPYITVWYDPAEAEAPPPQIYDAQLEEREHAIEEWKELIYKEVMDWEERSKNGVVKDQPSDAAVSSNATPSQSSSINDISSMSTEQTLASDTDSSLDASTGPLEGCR
JNK3, sequence (P53779 whole entry, species assumed): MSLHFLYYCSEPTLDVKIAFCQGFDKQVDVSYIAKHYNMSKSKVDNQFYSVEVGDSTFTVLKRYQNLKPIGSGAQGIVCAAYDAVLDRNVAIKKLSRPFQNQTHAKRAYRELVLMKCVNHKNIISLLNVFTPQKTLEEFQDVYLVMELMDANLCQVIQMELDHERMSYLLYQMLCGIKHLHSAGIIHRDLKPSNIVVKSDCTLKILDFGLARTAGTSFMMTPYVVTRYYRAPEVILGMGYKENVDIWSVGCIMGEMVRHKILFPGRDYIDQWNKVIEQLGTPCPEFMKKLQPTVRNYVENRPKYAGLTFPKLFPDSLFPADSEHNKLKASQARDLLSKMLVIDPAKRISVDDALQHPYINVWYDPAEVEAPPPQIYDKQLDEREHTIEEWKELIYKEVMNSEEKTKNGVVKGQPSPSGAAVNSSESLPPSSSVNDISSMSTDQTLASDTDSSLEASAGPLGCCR

IC50 (JNK1; [1])	IC50 (JNK3) [nM]	IC50 (JNK2) [nM]	IC50 (JNK1; read-out: JNK 1 IC50) [nM]	Structure (SMILES)
6 to 100 nM and 6 to 20 nM	9 to 50	4 to 46		CC(C)C[C@@H](CO)NC(=O)c1c(-c2ccsc2)nc2c(C(=O)NCc3ccnc(N4CCCC4)c3)cccn12 [Compound 296]
6 to 100 nM	9 to 50	4 to 46	23	CC(C)C[C@@H](CO)NC(=O)c1c(-c2cc(F)cc(F)c2)nc2c(C(=O)NCc3ccc4nc(N)sc4c3)cccn12 [Compound 544]
